# Measurements taken from patent publication US20260118357A1, “TETRA-FUNCTIONAL CHEMICAL PROBE AND METHOD FOR IDENTIFYING TARGET MEMBRANE PROTEIN FROM LIVING CELL OR LIVING TISSUE BY USING SAID PROBE” (priority 2019, published 2026).
# Legend:
# Format in all cases: cell-based
# [1] = test system: GABA receptor subunits (Gabra1, Gabra2, Gabra5, Gabrg2); experiment: Isolation and detection of target molecule from living tissue (brain slices) using the probe, LC-MS; settings: DBA/2CrSlc mouse brain slices, CPF-202 302 nm UV 1 minute, CPF-242 365 nm UV 15 minutes, FIGS. 3 and 4
# Experimental: (§1) A DBA/2CrSlc mouse was anesthetized by isoflurane inhalation and then decapitated, and the brain was quickly removed. The removed brain was immersed in artificial cerebrospinal fluid (ACSF) at 0° C. for 60 seconds while being continuously bubbled with a gas mixture (95% O2, 5% CO2). The olfactory bulb and cerebellum were removed with a scalpel, and the brain was fixed to the stage of a vibrating blade microtome (Leica, VT1200) using instant glue. Sliced sections (thin sections having a thickness of 0.3 mm) of the brain containing the striatum and hippocampus were prepared in ACSF at 0° C. continuously bubbled with the gas mixture. The sliced sections were placed in a dish containing artificial cerebrospinal fluid. An unmodified ligand or DMSO was added, and the dish was allowed to stand at room temperature for 5 minutes. Subsequently, compound (CPF-224) produced in Production Example 10 or compound (CPF-202) produced in Production Example 8 was added, and the dish was allowed to stand at room temperature for 30 minutes. The solution was removed, and the sliced sections were irradiated with UV light (in the cases of CPF-224 and CPF-202, 302 nm UV light for 1 minute; in the case of CPF242, 365 nm UV light for 15 minutes). The sliced sections were washed and collected with PBS, and the supernatant was removed by centrifugation (3000×g, 4° C., 5 minutes). The obtained pellets were analyzed by the same method as in Test Example 1. The analysis was performed in two independent tests, and the results can be expressed as a ratio relative to those in the group treated with the unmodified ligand.
# [2] = test system: AMPA-type glutamate receptors (Gria1, Gria2, Gria3, Gria4); experiment: as above; settings: DBA/2CrSlc mouse brain slices, 302 nm UV 1 minute, two independent tests, FIG. 2
# Experimental: as §1
# [3] = target: T1, human dopamine receptor D2 (DRD2) (Homo sapiens, UniProt P14416); experiment: Isolation and detection of target molecule from living cells using the probe (UV crosslinking, streptavidin enrichment, LC-MS); settings: CHO-K1 cells stably expressing human DRD2; 302 nm UV 1 minute; LC-MS LFQ; two independent tests; FIG. 1
# T1 construct: expressed in transfected cells; host or cells: CHO-K1
# Experimental: CHO-K1 cells stably expressing human dopamine receptor D2 (DRD2) were cultured on a 10-cm plate until they became confluent.
# The cells were washed with a medium, and the medium was replaced with a medium containing DMSO or an unmodified ligand, followed by a reaction for 30 minutes. Subsequently, the medium was discarded and replaced with a medium containing compound (CPP-127) synthesized in Production Example 12, and the cells were allowed to stand at 37° C. for 30 minutes. The medium was discarded, and the cells were washed with PBS. PBS (1 ml) was added to the cells on the plate, and then the cells were irradiated with 302 nm UV light for 1 minute using a UV crosslinker. The cells were collected with a cell scraper after UV irradiation, and the collected cell pellets were cryopreserved at −80° C.
# The cryopreserved cells were suspended in 50 mM Tris Homogenate Buffer (pH 7.4, 2.5 mM EDTA, 5 mM MgCl2, 320 mM sucrose) and homogenized using a sonicator. […]
# The obtained tryptic digest was desalted and purified, and protein analysis was performed by LC-MS. […] A full scan MS spectrum was acquired in the m/z range of 380 to 1600, and a product ion spectrum was measured in data dependent acquisition mode. The data obtained by LC-MS were analyzed by Proteome Discoverer 2.2 analysis software (PD 2.2, Thermo Fisher Scientific). […]
# T1 sequence (P14416 whole entry): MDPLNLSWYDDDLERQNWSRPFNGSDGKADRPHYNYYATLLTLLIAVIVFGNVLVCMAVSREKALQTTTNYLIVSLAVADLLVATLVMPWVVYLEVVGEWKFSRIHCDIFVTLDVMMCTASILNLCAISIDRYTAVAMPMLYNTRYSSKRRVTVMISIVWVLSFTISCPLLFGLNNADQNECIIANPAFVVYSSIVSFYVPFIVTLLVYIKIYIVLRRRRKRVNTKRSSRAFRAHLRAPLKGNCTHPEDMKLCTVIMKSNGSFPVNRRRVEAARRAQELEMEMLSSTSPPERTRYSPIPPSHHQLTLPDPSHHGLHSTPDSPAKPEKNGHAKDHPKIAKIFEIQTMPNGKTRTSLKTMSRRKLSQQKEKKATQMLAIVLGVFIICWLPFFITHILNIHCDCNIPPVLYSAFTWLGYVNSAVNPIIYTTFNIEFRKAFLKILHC
Structure (SMILES),detection of GABA receptor subunits compared with the group treated with the unmodified ligand [1],also measured
CC1(C)CC(=O)C(=C(CCOCCOCCOCCOCCNC(=O)CCCC[C@@H]2SC[C@@H]3NC(=O)N[C@@H]32)NCCCC(=O)Nc2ccc(-n3nnc(C(=O)NCCCN4C(=O)CN=C(c5ccccc5)c5cc(Cl)ccc54)n3)cc2)C(=O)C1 [CPF-202],specifically collected,–
CC1(C)CC(=O)C(=C(CCOCCOCCOCCOCCNC(=O)CCCC[C@@H]2SC[C@@H]3NC(=O)N[C@@H]32)NCCCC(=O)Nc2ccc(-n3nnc(C(=O)NCc4ccn(-c5cc6c(cc5C(F)(F)F)[nH]c(=O)c(=O)n6CC(=O)O)c4)n3)cc2)C(=O)C1 [CPF-224],–,detection of AMPA-type glutamate receptors compared with the group treated with the unmodified ligand [2]: specifically collected
CC1(C)CC(=O)C(=C(CCOCCOCCOCCOCCNC(=O)CCCC[C@@H]2SC[C@@H]3NC(=O)N[C@@H]32)NCCCCCNC(=O)CCC2(CCC(=O)NCCCN3C(=O)CN=C(c4ccccc4)c4cc(Cl)ccc43)N=N2)C(=O)C1 [CPF-242],specifically collected,–
CC1(C)CC(=O)C(=C(CCOCCOCCOCCOCCNC(=O)CCCC[C@@H]2SC[C@@H]3NC(=O)N[C@@H]32)NCCCC(=O)Nc2ccc(-n3nnc(C(=O)NCCCCC(=O)NCCCN4CCc5ccc(OCCCN6CCN(c7cccc8sccc78)CC6)cc5C4=O)n3)cc2)C(=O)C1 [CPP-127],–,detection of dopamine receptor D2 compared with the group treated with the unmodified ligand [3]: specifically collected
